These results are taken from patent US7745476B2, “1,3,5-trisubstituted 4,5-dihydro-1H-pyrazole derivatives having CB1-antagonistic activity” (Solvay Pharmaceuticals B.V., priority 2004, dated 2010).

Series [1] deals with human cannabinoid CB1 receptor (Homo sapiens, UniProt P21554). The experiment in a line: In vitro affinity for cannabinoid-CB1 receptors ([3H]CP-55,940 radioligand binding, CHO cell membranes). Particulars: read-out: In vitro affinity pKi value (converted). The protocol: The affinity of the compounds of the invention for cannabinoid CB1 receptors can be determined using membrane preparations of Chinese hamster ovary (CHO) cells in which the human cannabinoid CB1 receptor is stably transfected in conjunction with [^3H]CP-55,940 as radioligand. After incubation of a freshly prepared cell membrane preparation with the [^3H]-ligand, with or without addition of compounds of the invention, separation of bound and free ligand is performed by filtration over glassfiber filters. Radioactivity on the filter is measured by liquid scintillation counting.
Chain of human cannabinoid CB1 receptor (P21554 whole entry): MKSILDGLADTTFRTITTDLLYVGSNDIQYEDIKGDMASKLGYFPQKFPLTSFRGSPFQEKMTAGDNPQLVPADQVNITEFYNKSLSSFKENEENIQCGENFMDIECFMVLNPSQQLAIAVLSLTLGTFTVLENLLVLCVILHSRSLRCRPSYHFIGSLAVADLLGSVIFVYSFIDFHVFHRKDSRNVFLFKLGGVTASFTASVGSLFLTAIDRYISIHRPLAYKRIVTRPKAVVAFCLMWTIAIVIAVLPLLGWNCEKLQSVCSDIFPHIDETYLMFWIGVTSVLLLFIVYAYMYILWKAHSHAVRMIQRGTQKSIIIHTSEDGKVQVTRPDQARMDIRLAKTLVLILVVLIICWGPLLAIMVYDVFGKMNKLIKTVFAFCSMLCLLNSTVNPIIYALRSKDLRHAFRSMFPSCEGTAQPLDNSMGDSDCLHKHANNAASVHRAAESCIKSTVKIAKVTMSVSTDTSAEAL

A further series addresses human CB1 receptor (Homo sapiens, UniProt P21554). The experiment in a line: In vitro cannabinoid-CB1 receptor antagonism (WIN 55,212-2-induced [3H]-arachidonic acid release in CHO cells). Format: cell-based. Particulars: 10^−6M. The protocol: In vitro CB1 receptor antagonism can be assessed with the human CB1 receptor cloned in Chinese hamster ovary (CHO) cells. CHO cells are grown in a Dulbecco's Modified Eagle's medium (DMEM) culture medium, supplemented with 10% heat-inactivated fetal calf serum. Medium is aspirated and replaced by DMEM, without fetal calf serum, but containing [^3H]-arachidonic acid and incubated overnight in a cell culture stove (5% CO2/95% air; 37° C.; water-saturated atmosphere). During this period [^3H]-arachidonic acid is incorporated in membrane phospholipids. On the test day, medium is aspirated and cells are washed three times using 0.5 ml DMEM, containing 0.2% bovine serum albumin (BSA). Stimulation of the CB1 receptor by WIN 55,212-2 leads to activation of PLA2 followed by release of [^3H]-arachidonic acid into the medium. This WIN 55,212-2-induced release is concentration-dependently antagonized by CB1 receptor antagonists.

Chain of human CB1 receptor (P21554 whole entry): as above

Consider `O=C(NN1CCCCC1)C1=NN(c2ccc(Cl)cc2Cl)C(c2ccccc2)C1` (stereo not shown) [Compound 3, N-(Piperidin-1-yl)-1-(2,4-dichlorophenyl)-5-phenyl-4,5-dihydro-(1H)-pyrazole-3-carboxamide], for which the melting point (as a rule, the temperature, or range, at which the solid turns liquid) was 163 to 165 °C. Besides, the Ki in series [1] is 25.1 nM. Moreover, testing at 1 µM against human CB1 receptor gave an inhibition of 98%.
`N/C(=N\S(=O)(=O)c1ccc(F)cc1)C1=NN(c2ccc(Cl)cc2Cl)C(c2ccccc2)C1` (stereo not shown) [Compound 6, N-[(4-fluorophenyl)sulfonyl]-1-(2,4-dichlorophenyl)-5-phenyl-4,5-dihydro-(1H)-pyrazole-3-carboxamidine] came in with a melting point of 167 to 169.5 °C.
Turning to `CNC(=NS(=O)(=O)N1CCCCC1)C1=NN(c2ccc(Cl)cc2)C(c2ccccc2)C1` (stereo not shown) [Compound 10, N-[(piperidin-1-yl)sulfonyl]-N′-methyl-1-(4-chlorophenyl)-5-phenyl-4,5-dihydro-(1H)-pyrazole-3-carboxamidine], the Ki in series [1] was 79.4 nM. Besides, on human CB1 receptor, the inhibition (commonly how much of the control response was suppressed) at 1 µM came to 79%.
On to `O=C(NC1CCCCC1)C1=NN(c2ccc(Cl)cc2Cl)C(c2ccccc2)C1` (stereo not shown), for which the melting point lay within 160 to 163.5 °C.
`O=C(NN1CCCCC1)C1=NN(c2ccc(Cl)cc2)C(c2ccccc2)C1` (stereo not shown) [Compound 1, N-(piperidin-1-yl)-1-(4-chlorophenyl)-5-phenyl-4,5-dihydro-(1H)-pyrazole-3-carboxamide] yielded a melting point of 189 to 192 °C.
Same read-out and setting: the result for `N/C(=N\S(=O)(=O)c1ccc(F)cc1)C1=NN(c2ccc(Cl)cc2)C(c2ccccc2)C1` (stereo not shown) [Compound 5, N-[(4-fluorophenyl)sulfonyl]-1-(4-chlorophenyl)-5-phenyl-4,5-dihydro-(1H)-pyrazole-3-carboxamidine] reads 200 to 203.5 °C.
Regarding `CN/C(=N\S(=O)(=O)N1CCOCC1)C1=NN(c2ccc(Cl)cc2Cl)C(c2ccccc2)C1` (stereo not shown) [Compound 11, N-[(Morpholin-4-yl)sulfonyl]-N′-methyl-1-(2,4-dichlorophenyl)-5-phenyl-4,5-dihydro-(1H)-pyrazole-3-carboxamidine], the melting point was in the range of 161 to 165 °C.
